# Experiments:
# [1] = Inhibition of IL-1beta release in PMA-differentiated/ LPS and nigericin stimulated human THP-1 cells at 0.1 uM pretreated with LPS for 3 hrs followed by incubation with compound for 40 mins and later stimulated with nigericin for 40 mins by ELISA; format: functional; conditions: THP-1, 1.333 h, time 80 min
# [2] = Inhibition of IL-1beta release in PMA-differentiated/ LPS and nigericin stimulated human THP-1 cells pretreated with LPS for 3 hrs followed by incubation with compound for 40 mins and later stimulated with nigericin for 40 mins by ELISA; format: functional, cell-based
# [3] = Inhibition of IL-1beta release in PMA-differentiated/ LPS and nigericin stimulated human THP-1 cells at 0.5 uM pretreated with LPS for 3 hrs followed by incubation with compound for 40 mins and later stimulated with nigericin for 40 mins by ELISA; format: functional; conditions: THP-1, 1.333 h, time 80 min
# Mus musculus = test: Antiinflammatory activity against LPS induced septic shock in BALB/c mouse assessed as increase in survival rate at 25 mg/kg, ip pretreated for 1 hr followed by LPS stimulation and measured after 72 hrs; format: functional; conditions: time 73 hrs
# hERG (KCNH2) = hERG (KCNH2) (Homo sapiens, UniProt Q12809); test: Inhibition of human ERG at 20 uM relative to control
# [4] = Metabolic stability in human liver microsomes assessed as half life at 10 uM […] in presence of NADPH by LC-MS/MS analysis; format: ADME, Microsome
# [5] = Metabolic stability in human liver microsomes assessed as intrinsic clearance per g protein at 10 uM […] in presence of NADPH by LC-MS/MS analysis; format: ADME, Microsome
# hERG (KCNH2), sequence (Q12809 whole entry): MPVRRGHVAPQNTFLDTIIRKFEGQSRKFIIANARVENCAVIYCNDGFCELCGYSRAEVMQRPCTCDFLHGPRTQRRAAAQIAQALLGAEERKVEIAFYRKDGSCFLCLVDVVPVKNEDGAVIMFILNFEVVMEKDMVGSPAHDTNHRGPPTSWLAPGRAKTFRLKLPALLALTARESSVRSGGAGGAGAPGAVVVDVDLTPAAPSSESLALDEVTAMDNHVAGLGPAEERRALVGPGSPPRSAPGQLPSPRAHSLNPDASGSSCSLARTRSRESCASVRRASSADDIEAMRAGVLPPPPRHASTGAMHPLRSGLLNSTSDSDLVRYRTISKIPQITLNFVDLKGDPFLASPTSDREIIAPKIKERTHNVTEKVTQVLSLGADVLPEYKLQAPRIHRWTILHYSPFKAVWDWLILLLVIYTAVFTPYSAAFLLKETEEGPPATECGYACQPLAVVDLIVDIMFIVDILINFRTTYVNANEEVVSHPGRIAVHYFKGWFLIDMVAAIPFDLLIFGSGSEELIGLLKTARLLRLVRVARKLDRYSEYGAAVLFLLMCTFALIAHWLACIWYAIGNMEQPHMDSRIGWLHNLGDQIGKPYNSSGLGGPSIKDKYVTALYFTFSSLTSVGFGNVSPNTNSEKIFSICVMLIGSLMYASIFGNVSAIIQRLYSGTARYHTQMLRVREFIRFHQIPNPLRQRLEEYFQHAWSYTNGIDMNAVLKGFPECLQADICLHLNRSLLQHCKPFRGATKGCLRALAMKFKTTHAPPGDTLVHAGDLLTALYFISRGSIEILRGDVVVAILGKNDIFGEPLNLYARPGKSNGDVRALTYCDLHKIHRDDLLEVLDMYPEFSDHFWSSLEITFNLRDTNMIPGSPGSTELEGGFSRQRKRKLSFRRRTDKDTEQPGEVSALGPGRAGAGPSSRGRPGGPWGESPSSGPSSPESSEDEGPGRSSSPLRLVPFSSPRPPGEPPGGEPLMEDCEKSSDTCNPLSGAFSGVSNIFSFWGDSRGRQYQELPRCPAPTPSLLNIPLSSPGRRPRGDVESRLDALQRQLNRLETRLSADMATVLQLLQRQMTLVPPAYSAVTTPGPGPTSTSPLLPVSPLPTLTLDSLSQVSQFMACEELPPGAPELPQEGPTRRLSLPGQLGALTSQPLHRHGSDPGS
IC50 [2],half-life at 10 µM [4],intrinsic clearance [5],SMILES,inhibition at 0.1 µM [1],inhibition at 0.5 µM [3],Activity (Mus musculus),inhibition at 20 µM (hERG (KCNH2))
42 nM,,,OCCN1CCC[C@@H](Nc2nnc(-c3ccc(C(F)(F)F)cc3O)c3c2C2CCC3CC2)C1,98.6%,99.2%,,
12 nM,,,Cc1c(N[C@@H]2CCCC[C@H]2O)nnc(-c2ccc(C(F)(F)F)cc2O)c1C,97.8%,98.3%,,
79 nM,,,Oc1cc(C(F)(F)F)ccc1-c1nnc(N[C@@H]2CCCC[C@H]2O)c2c1C1CCC2C1 (some centres undefined),43.5%,95.6%,,57.7%
6 nM,,,Oc1cc(C(F)(F)F)ccc1-c1nnc(N[C@@H]2CCCC[C@H]2O)c2c1CCCC2,92.4%,98.3%,,84.1%
,,,CC(F)(F)CN1CCC[C@@H](Nc2nnc(-c3ccc(C(F)(F)F)cc3O)c3c2C2CCC3CC2)C1,29%,49.9%,,
,,,CN1CCC[C@H](Nc2nnc(-c3ccc(C(F)(F)F)cc3O)c3c2C2CCC3C2)C1 (some centres undefined),5.31%,3.09%,,
26 nM,,,Oc1cc(Cl)ccc1-c1nnc(N[C@@H]2CCCN(C3CC(F)(F)C3)C2)c2c1C1CCC2CC1,88%,95.3%,,23.9%
9 nM,,,Oc1cc(C(F)(F)F)ccc1-c1nnc(N[C@@H]2CCCC[C@H]2O)c2ccccc12,98.3%,97.8%,,86%
38 nM,,,CN1CCC[C@@H](Nc2nnc(-c3ccc(C(F)(F)F)cc3O)c3c2C2CCC3CC2)C1,97%,97.4%,,
1 nM,> 2 h,< 12 mL/min,CCN1CCC[C@@H](Nc2nnc(-c3ccc4occc4c3O)c3c2C2CCC3CC2)C1,98.6%,98.3%,,85.3%
,,,Oc1c(-c2nnc(N[C@@H]3CCOC3)c3c2C2CCC3CC2)ccc2occc12,25%,30%,,
,,,N#Cc1ccc(-c2nnc(N[C@@H]3CCCN(C4CC(F)(F)C4)C3)c3c2C2CCC3CC2)c(O)c1,51.7%,91.5%,,
,,,Oc1cc(C(F)(F)F)ccc1-c1nnc(N[C@@H]2CCCN(C3COC3)C2)c2c1C1CCC2CC1,52.9%,96.5%,,
76 nM,,,Oc1cc(C(F)(F)F)ccc1-c1nnc(N[C@@H]2CCCN(C3CC(F)(F)C3)C2)c2c1C1CCC2C1 (some centres undefined),72.8%,96.3%,,
103 nM,,,Oc1cc(C(F)(F)F)ccc1-c1nnc(N[C@@H]2CCCNC2)c2c1C1CCC2CC1,46.5%,94.3%,,
57 nM,,,Oc1c(-c2nnc(N[C@@H]3CCCN(C4CC(F)(F)C4)C3)c3c2C2CCC3CC2)ccc2sccc12,61.9%,96.9%,,69.4%
,,,OC[C@@H](O)CNc1nnc(-c2ccc(C(F)(F)F)cc2O)c2c1C1CCC2CC1,20.3%,74.5%,,
5 nM,> 2 h,< 12 mL/min,CN1C[C@H](F)C[C@@H](Nc2nnc(-c3ccc4occc4c3O)c3c2C2CCC3CC2)C1,98.6%,98.6%,,78.5%
,,,Oc1cc(C(F)(F)F)ccc1-c1nnc(N[C@@H]2CCCN(CC(F)F)C2)c2c1C1CCC2CC1,19.7%,73.8%,,
,,,CN1CCO[C@H](CNc2nnc(-c3ccc4occc4c3O)c3c2C2CCC3CC2)C1,9.42%,36.5%,,

IC50 [2],half-life at 10 µM [4],intrinsic clearance [5],SMILES,inhibition at 0.1 µM [1],inhibition at 0.5 µM [3],Activity (Mus musculus),inhibition at 20 µM (hERG (KCNH2))
6 nM,> 2 h,< 12 mL/min,Oc1c(-c2nnc(N[C@@H]3CCCC[C@H]3O)c3c2C2CCC3CC2)ccc2occc12,94.9%,96.3%,,60%
49 nM,,,Oc1cc(C(F)(F)F)ccc1-c1nnc(N[C@@H]2CCCN(C3CCC3)C2)c2c1C1CCC2C1 (some centres undefined),94.6%,97.2%,,
2 nM,0.745 h,31 mL/min,Oc1c(-c2nnc(N[C@@H]3CCCN(C4CC(F)(F)C4)C3)c3c2C2CCC3CC2)ccc2occc12,98.5%,98.6%,,-1.03%
87 nM,,,Oc1cc(C(F)(F)F)ccc1-c1nnc(N[C@@H]2CCCN(CC3CC3)C2)c2c1C1CCC2C1 (some centres undefined),83.9%,97.2%,,
25 nM,,,Oc1cc(C(F)(F)F)ccc1-c1nnc(N[C@@H]2CCCN(C3CC(F)(F)C3)C2)c2c1C1CCC2CC1,96.3%,97.4%,,15.5%
53 nM,,,Cc1ccc(-c2nnc(N[C@@H]3CCCN(C4CC(F)(F)C4)C3)c3c2C2CCC3CC2)c(O)c1,60.2%,96.6%,,63.8%
1 nM,> 2 h,< 12 mL/min,[2H]C([2H])([2H])C([2H])([2H])N1CCC[C@@H](Nc2nnc(-c3ccc4occc4c3O)c3c2C2CCC3CC2)C1,98.6%,98.5%,,85.8%
,,,CN1C[C@H](Nc2nnc(-c3ccc4occc4c3O)c3c2C2CCC3CC2)CC(F)(F)C1,55.5%,97.7%,,
27 nM,,,CCN1CCC[C@@H](Nc2nnc(-c3ccc(C(F)(F)F)cc3O)c3c2C2CCC3C2)C1 (some centres undefined),92.5%,96.3%,,
,,,Oc1cc(OC(F)(F)F)ccc1-c1nnc(N[C@@H]2CCCN(C3CC(F)(F)C3)C2)c2c1C1CCC2CC1,46.5%,93.2%,,
49 nM,,,Oc1cc(C(F)(F)F)ccc1-c1nnc(N[C@@H]2CCCN(C3CCOC3)C2)c2c1C1CCC2CC1 (some centres undefined),95.2%,96.8%,,
38 nM,,,CN1CCC[C@@H](Nc2nnc(-c3ccc(C(F)(F)F)cc3O)c3c2C2CCC3C2)C1 (some centres undefined),95%,96.9%,,
27 nM,,,Oc1cc(C(F)(F)F)ccc1-c1nnc(N[C@@H]2CCCN(C3CCC3)C2)c2c1C1CCC2CC1,96.8%,97.1%,,
,,,Oc1cc(C(F)(F)F)ccc1-c1nnc(N[C@@H]2CCC[C@H](O)C2)c2c1C1CCC2CC1,45%,90.8%,,
4 nM,1.16 h,20 mL/min,Oc1c(-c2nnc(N[C@@H]3CCC[C@H](O)C3)c3c2C2CCC3CC2)ccc2occc12,97.2%,98.2%,,59%
4 nM,> 2 h,< 12 mL/min,CC(CO)N1CCC[C@@H](Nc2nnc(-c3ccc4occc4c3O)c3c2C2CCC3CC2)C1 (some centres undefined),98.8%,99%,,71%
,,,N#CCN1CCC[C@@H](Nc2nnc(-c3ccc(C(F)(F)F)cc3O)c3c2C2CCC3C2)C1 (some centres undefined),7.6%,77%,,
,,,CN1CC[C@@H](Nc2nnc(-c3ccc(C(F)(F)F)cc3O)c3c2C2CCC3C2)C1 (some centres undefined),12.1%,32.7%,,
,,,CC(C)(F)CN1CCC[C@@H](Nc2nnc(-c3ccc(C(F)(F)F)cc3O)c3c2C2CCC3CC2)C1,55.4%,95.8%,,
124 nM,,,Oc1cc(C(F)(F)F)ccc1-c1nnc(N[C@@H]2CCCC[C@H]2O)c2c1C1CCC2CC1,35.9%,85.8%,,-1.93%

SMILES,IC50 [2],half-life at 10 µM [4],intrinsic clearance [5],inhibition at 0.1 µM [1],inhibition at 0.5 µM [3],Activity (Mus musculus),inhibition at 20 µM (hERG (KCNH2))
CC(C)(O)c1coc(S(=O)(=O)NC(=O)Nc2c3c(cc4c2CCC4)CCC3)c1,8 nM,,,99.2%,99.3%,60%,
